Test results: patent US20130065818A1, “Arylamide Compounds And Compositions And Uses Thereof” (POLYMEDIX, priority 2006, published 2013)
≈ marks a conversion by molar mass, not a printed value.

Tests used:
[1] = NZW rabbit keratitis model, clinical evaluation (Total Ocular Score)
Description: Fifteen rabbits were received from Myrtles' Rabbitry, Thompson Station, TN. The clinical isolate of fluoroquinolone-resistant, methicillin-resistant (MRSA) Staphylococcus aureus (K950) was subcultured on 5% sheep blood agar and incubated at 37° C. in 6% CO2 overnight. The next morning, the MRSA strain was suspended in sterile trypticase soy broth to a 0.5 McFarland Standard, containing approximately 5×10^8 cfu/ml of bacteria. The absorbance of the suspension was measured at 650 nm using a Beckman DU-70 spectrophotometer. OD readings of 0.07 corresponded to 5×10^8 cfu/ml of bacteria. This concentration was appropriately diluted in sterile trypticase soy broth to provide the inoculum of approximately 1,000 (1.0×10^3) cfu/eye in 25 μl. Colony counts were performed on the inoculum to determine the actual cfu inoculated. Following general anesthesia with ketamine and xylazine and topical anesthesia with proparacaine and prior to bacterial inoculation in the left eyes, 6 mm areas of the corneal epithelia was removed centrally with an Amoils epithelial scrubber. Nothing was done to the right eyes. The 15 rabbits were then inoculated intrastromally in both eyes with 25 μl of the bacterial dilution of approximately 10^3 cfu/eye of the bacteria. The bacterial inoculation of the left eyes was directly under the epithelial defect created by the Amoils epithelial scrubber. The epithelia were removed in the left corneas in order to determine whether this layer of the cornea is a barrier for Oligomer 2 penetration when compared to the right cornea with an intact epithelium. A colony count was done on the inoculum to determine the actual cfu inoculated. The rabbits were immediately treated with analgesia in the form of and intramuscular injection of ketoprofen, 1.5 mg/kg. After 4 hours, the 15 rabbits were divided into 4 treatment groups and one untreated control group sacrificed at the onset of therapy. Both eyes of each rabbit of the treatment groups were treated with one 37 μl drop of the coded solutions or control Saline or 1 drop of vancomycin from its dropper bottle. The Oligomer 2 concentrations were masked and labeled as 1 and 2. The masked concentrations were 1% Oligomer 2 and 0.5% Oligomer 2 but the specific concentrations of solutions were not known to the lab workers who carried out the experiment. The vancomycin and control (Tris-Buffered Saline) were not masked.
Treatment was scheduled for every 15 minutes for 5 hours (21 total doses). However, PMX-1 and PMX-2 were exhausted after the 19th dose. Therefore, the actual treatment was 15 minutes for 4.5 hours (19 total doses). The 3 rabbits in group V were sacrificed 4 hours PI and large 9.5 mm buttons were removed from the corneas. These were placed in 1 ml of PBS and kept on ice. The corneal buttons were homogenized for 25 seconds on ice using the motorized homogenizer. After homogenization, colony counts were done on the homogenates using 5% sheep blood agar plates to determine the amount of bacteria contained in the corneas at the onset of therapy. Following the completion of therapy, the eyes were examined for clinical signs of infection. One hour after the final treatment, the treated rabbits (Groups I-IV) were sacrificed and large 9.5 mm buttons were removed from the corneas. These were placed in 1 ml of PBS and kept on ice. The corneal buttons were homogenized for 25 seconds on ice using the motorized homogenizer. After homogenization, colony counts were performed on the homogenates using 5% sheep blood agar plates to determine the amount of bacteria contained in the corneas after treatment. The next morning, the plates were counted and the number of cfu/eye of Staphylococcus aureus was determined for each cornea.
Fifteen rabbits were received from Myrtles' Rabbitry, Thompson Station, TN.

[2] = system: K. pneumoniae Lab Strain KP10; assay: MIC, laboratory strains (Example 8); assay type: cell-based

| Structure (SMILES) | MIC [2] | further results |
| --- | --- | --- |
| CC(C)=CCCC(C)=CCCC(C)=CCO [Farnesol] |  | Toxicity (Total Ocular Scores) compared with Saline treated eyes ([1]; rabbit, in vivo): did not induce statistically greater toxicity |
| N=C(N)NCCCCC(=O)Nc1cc(C(F)(F)F)cc(NC(=O)c2cnc(C(=O)Nc3cc(C(F)(F)F)cc(NC(=O)CCCCNC(=N)N)c3SCCN)cn2)c1SCCN [Oligomer 5] | 1.56 µg/mL (≈ 1.7 µM) |  |
| N=C(N)NCCCCC(=O)Nc1cc(C(F)(F)F)cc(NC(=O)c2cc(C(=O)Nc3cc(C(F)(F)F)cc(NC(=O)CCCCNC(=N)N)c3O[C@@H]3CCNC3)ncn2)c1O[C@@H]1CCNC1 [Oligomer 4] | 0.78 µg/mL (≈ 0.833 µM) |  |
| N=C(N)NCCCCC(=O)Nc1cc(C(F)(F)F)cc(NC(=O)c2cc(C(=O)Nc3cc(C(F)(F)F)cc(NC(=O)CCCCNC(=N)N)c3SCCN)ncn2)c1SCCN [Oligomer 2] |  | Effect of removal of the epithelium on Total Ocular Scores ([1]; Ker-1, 1% and 0.5% Oligomer 2, compared with intact epithelia): increased the Total Ocular Scores |
